Tests used:
[1] = Compound was tested for neuronal damage produced by application of 500 uM kainate; assay type: functional
[2] = target: Glutamate receptor ionotropic, AMPA (Rattus norvegicus, UniProt P19490+P19491+P19492+P19493); experiment: Binding affinity towards AMPA receptor to rat cortical membrane using [3H]AMPA as radioligand
[3] = tested on: Mus musculus; experiment: Ability to block the AMPA-induced convulsant effects in mice upon intracerebroventricular injection; assay type: functional; details: central
[4] = target: Glutamate receptor ionotropic, kainate; experiment: Binding affinity towards kainate receptor to rat cortical membrane using [3H]kainate as radioligand
[5] = target: Glutamate receptor ionotropic, NMDA 1 (Rattus norvegicus, UniProt P35439); experiment: Binding affinity towards glycine binding site of NMDA receptor to rat cortical membrane using [3H]glycine as radioligand
[6] = Inhibitory activity against lactate dehydrogenase release was determined; assay type: functional
[7] = target: Glutamate NMDA receptor; experiment: Binding affinity towards glutamate binding site of NMDA receptor to rat cortical membrane using NMDA sensitive [3H]-glutamate as radioligand

SMILES	IC50 [1] [µM]	IC50 [2] [µM]	ED50 [3] [mg/kg]	IC50 [4] [µM]	IC50 [5] [µM]	IC50 [6] [µM]	IC50 [7] [µM]
CN1Cc2c(S(=O)(=O)N(C)C)cc3c(N=O)c(O)[nH]c3c2C1	10	0.7	10	13	> 100	9	44
NS(=O)(=O)c1cccc2c1c([N+](=O)[O-])cc1nc(O)c(O)nc12 [NBQX]	–	–	10	–	–	–	–

Source: ChEMBL document CHEMBL1151047, “NS 257 (1,2,3,6,7,8-hexahydro-3(hydroxyimino)-N,N,7-trimethyl-2-oxobenzo[2,1-b:3,4-c']dipyrrole-5-sulfonamide) is a potent, systemically active ampa receptor antagonist” (Bioorg Med Chem Lett, 1994)
